Here are results for two compounds from patent publication US8927538B2, “Carbazole linked pyrrolo[2,1-c][1,4]benzodiazefine hybrids as potential anticancer agents and process for the preparation thereof” (Council of Scientific & Industrial Research, priority 2010, dated 2015).

One data set concerns PC-3. Put plainly: NCI SRB cytotoxicity, PC-3. Type of data set: cell-based, human. Conditions: Prostate PC-3, 48 hrs exposure. An excerpt:
(§1) The C8-linked carbazole-PBD hybrids have been tested against sixty human tumour cell lines derived from nine cancer types (leukemia, non-small cell lung cancer, colon cancer, CNS cancer, melanoma, ovarian cancer, renal cancer, prostate cancer and breast cancer) as per NCI protocol, For each compound, dose response curves for individual cell lines have been measured at a minimum of five concentrations at 10 fold dilutions. A protocol of 48 hrs continuous drug exposure has been used, and a sulforhodamine B (SRB) protein assay was used to estimate cell viability or growth. The concentration for 50% cell growth inhibition (GI50), total cell growth inhibition (TGI, 0% growth) and 50% cell death (LC50, […]) compared with the control has been calculated (Table-3).
(§2) Compounds 6c and 14a have been evaluated for in vitro cytotoxicity in sixty cell lines from nine human cancer types of lung (Hop-62, NCI-H226, NCI-H522), leukemia (K-562, SR), colon (HCT-116, HCT-15, HCC-2998), CNS(SF-539), melanoma (SK-MEL-5, UACC-62, M14), ovarian (IGROV1), renal (A498), prostate (PC3) breast (BT-549, MDA-MB-435, HS578T) origin. The results are expressed as percent of cell growth determined relative to that of untreated control cells (Table 1).

The subject of the next data set is OVCAR-5. The experiment in a line: NCI SRB cytotoxicity, OVCAR-5. The class given is cell-based, human. To be noted: Ovarian OVCAR-5, 48 hrs exposure.
Excerpt: as §1, §2

Another data set deals with SF-268. The experiment in a line: NCI SRB cytotoxicity, SF-268. The class given is cell-based, human. Conditions: CNS SF-268, 48 hrs exposure.
Excerpt: as §1, §2

In a further data set the test system is DU-145. The experiment in a line: NCI SRB cytotoxicity, DU-145. Type of data set: cell-based, human. Conditions: Prostate DU-145, 48 hrs exposure.
Excerpt: as §1, §2

Another data set concerns CNS cancer cell lines. Put plainly: NCI SRB cytotoxicity, CNS panel. The class given is cell-based, human. Conditions: average of six to eight cell lines.
Excerpt: as §1, §2

A further data set has as its system K-562. The experiment in a line: NCI SRB cytotoxicity, K-562. Type of data set: cell-based, human. To be noted: Leukemia K-562, 48 hrs exposure.
Excerpt: as §1, §2

For data set [1], the system named is duplex-form calf thymus DNA (CT-DNA). Put plainly: Thermal denaturation studies (DNA binding). Conditions: [PBD]:[DNA] molar ratio 1:5, CT-DNA 100 μM, ligand 20 μM; for ΔTm after incubation at 37 °C for 0 h: pH 7.00, 0 h; for ΔTm after incubation at 37 °C for 18 h: pH 7.00, 18 h. The procedure: Compounds have been subjected to thermal denaturation studies with duplex-form calf thymus DNA (CT-DNA) using a modification of a reported procedure. Working solutions in aqueous buffer ([…] NaH2PO4/Na2HPO4, 1 mM Na2EDTA, pH 7.00±0.01) containing CT-DNA (100 μM in phosphate) and the PBD (20 μM) have been prepared by addition of concentrated PBD solutions in DMSO to obtain a fixed [PBD]/[DNA] molar ratio of 1:5. The DNA-PBD solutions have been incubated at 37° C. for 0 and 18 hrs prior to analysis. Samples have been monitored at 260 nm using a Beckman DU-800 spectrophotometer fitted with high performance temperature controller, and heated at 1° C. min^−1 in the 40-110° C. range. DNA helix→coil transition temperatures (Tm) have been obtained from the maxima in the d(A260)/dT derivative plots. Drug-induced alterations in DNA melting behavior are given by: […]Tm=Tm(DNA+PBD)-Tm(DNA alone), where the Tm value for the PBD-free CT-DNA is 68.5 […]0.01.
The DNA-binding for these C8-linked carbazole-PBD hybrids has been examined by thermal denaturation studies using calf thymus (CT) DNA. […] Data for 6a, 6b, 6c, 14a, 14b, and 14d and DC-81 are included in Table 5 for comparison.

The subject of the next data set is HOP-92. The experiment in a line: NCI SRB cytotoxicity, HOP-92. Type of data set: cell-based, human. To be noted: Non-small cell lung HOP-92, 48 hrs exposure.
Excerpt: as §1, §2

The subject of a further data set is MOLT-4. The experiment in a line: NCI SRB cytotoxicity, MOLT-4. The class given is cell-based, human. Conditions: Leukemia MOLT-4, 48 hrs exposure.
Excerpt: as §1, §2

For the next data set, the system named is NCI-H226. Put plainly: NCI SRB cytotoxicity, NCI-H226. To be noted: Non-small cell lung NCI-H226, 48 hrs exposure. Type of data set: cell-based, human.
Excerpt: as §1, §2

A further data set has as its system SK-MEL-5. Put plainly: NCI SRB cytotoxicity, SK-MEL-5. The class given is cell-based, human. To be noted: Melanoma SK-MEL-5, 48 hrs exposure.
Excerpt: as §1, §2

Another data set deals with LOX IMVI. The experiment in a line: NCI SRB cytotoxicity, LOX IMVI. The class given is cell-based, human. To be noted: Melanoma LOX IMVI, 48 hrs exposure.
Excerpt: as §1, §2

Data set [2] relates to Leukemia cancer cell lines. Put plainly: NCI SRB cytotoxicity, leukemia panel. The class given is cell-based, human. Conditions: average of six to eight cell lines.
Excerpt: as §1, §2

In the next data set the test system is M14. The experiment in a line: NCI SRB cytotoxicity, M14. The class given is cell-based, human. Conditions: Melanoma M14, 48 hrs exposure.
Excerpt: as §1, §2

For the next data set, the system named is U251. The experiment in a line: NCI SRB cytotoxicity, U251. The class given is cell-based, human. Conditions: CNS U251, 48 hrs exposure.
Excerpt: as §1, §2

The subject of the next data set is A549/ATCC. Put plainly: NCI SRB cytotoxicity, A549/ATCC. Type of data set: cell-based, human. To be noted: Non-small cell lung A549/ATCC, 48 hrs exposure.
Excerpt: as §1, §2

The next data set concerns MCF7. Put plainly: NCI SRB cytotoxicity, MCF7. The class given is cell-based, human. To be noted: Breast MCF7, 48 hrs exposure.
Excerpt: as §1, §2

In the next data set the test system is SR. Put plainly: NCI SRB cytotoxicity, SR. Type of data set: cell-based, human. To be noted: Leukemia SR, 48 hrs exposure.
Excerpt: as §1, §2

The subject of the next data set is HT 29. Put plainly: NCI SRB cytotoxicity, HT 29. Type of data set: cell-based, human. To be noted: Colon HT 29, 48 hrs exposure.
Excerpt: as §1, §2

For the next data set, the system named is NCI-H522. The experiment in a line: NCI SRB cytotoxicity, NCI-H522. Type of data set: cell-based, human. Conditions: Non-small cell lung NCI-H522, 48 hrs exposure.
Excerpt: as §1, §2

For the next data set, the system named is SW-620. The experiment in a line: NCI SRB cytotoxicity, SW-620. Type of data set: cell-based, human. Conditions: Colon SW-620, 48 hrs exposure.
Excerpt: as §1, §2

A value given as a limit tells only on which side of the number the result lay.

In the case of `COc1cc2c(cc1OCCCCCn1c3ccccc3c3ccccc31)N=C[C@@H]1CCCN1C2=O` [Compound 6c, 7-Methoxy-8-[5-(9H-9-carbazoly)pentyloxy]-(11aS)-1,2,3,11a-tetrahydro-5H-Pyrrolo[2,1-c][1,4]benzodiazepin-5-one], the GI50 with PC-3 worked out at 2360 nM; in the data set on OVCAR-5, 2420 nM; in the data set on SF-268, 1910 nM; in the data set on DU-145 it was 2230 nM; with K-562, 2600 nM; in the data set on HOP-92 it was 1310 nM. The GI50 with MOLT-4 amounted to 2150 nM; in the data set with NCI-H226, 2490 nM; in the data set on SK-MEL-5 it was 1730 nM; in the data set on LOX IMVI, 2080 nM; in the data set with M14 it was 2100 nM; with U251, 1590 nM. Besides, the GI50 in the data set on A549/ATCC amounted to 1570 nM; in the data set on MCF7, 2330 nM. Besides, the “Log10 GI50” value with CNS cancer cell lines is −5.76 mol/L; in data set [2], −5.56 mol/L. In addition, the “Log10 LC50 (concentration causing 50% lethality)” value in the data set with CNS cancer cell lines is given as −4.97 mol/L; in data set [2] it was −4.18 mol/L. Further, the “ΔTm after incubation at 37 °C for 0 h” value in [1] came out at 4.1 °C. For the same compound, the “ΔTm after incubation at 37 °C for 18 h” value in data set [1] turned out to be 4.9 °C.
`COc1cc2c(cc1OCCCN1CCN(CCCn3c4ccccc4c4ccccc43)CC1)N=C[C@@H]1CCCN1C2=O` [Compound 14a]: the GI50 in the data set with SR was 30 nM; with HT 29, 50 nM; in the data set with NCI-H522, less than 10 nM; with SW-620, 40 nM; in the data set on HOP-92, 270 nM; in the data set with SK-MEL-5, 230 nM. The results for the “Log10 GI50” value (in the data set with CNS cancer cell lines; in [2]) were −6.96 mol/L and −7.55 mol/L, respectively. Besides, the “Log10 LC50 (concentration causing 50% lethality)” value in the data set on CNS cancer cell lines is −5.67 mol/L. Besides, the “ΔTm after incubation at 37 °C for 0 h” value in data set [1] was found to be 7.5 °C. In addition, the “ΔTm after incubation at 37 °C for 18 h” value in data set [1] amounted to 8.2 °C.
